Test results as given in patent publication US20090215028A1, “Methods and Compositions for Determining Anti-HIV Drug Susceptibility and Replication Capacity of HIV” (priority 2005, published 2009).

Experiments:
Assay type in all cases: cell-based
[1] = tested on: HIV mutants comprising site-directed mutations in integrase; experiment: Anti-HIV drug susceptibility assay (luciferase test vectors, 293 cells), site-directed integrase mutants; details: FIG. 2
Description: A retroviral vector designed to measure antiretroviral drug susceptibility was constructed by using an infectious molecular clone of HIV-1. The vector, referred to herein as an indicator gene viral vector (IGVV), is replication defective and contains a luciferase expression cassette inserted within a deleted region of the envelope (env) gene. The IGVV is described in U.S. Pat. No. 5,837,464 (International Publication Number WO 97/27319) which is hereby incorporated by reference in its entirety. This retroviral vector was further modified to allow insertion of either the entire pol gene (POL) or the portion of pol encoding amino acids 319-440 of reverse transcriptase, the RNase H portion of reverse transcriptase, and integrase (RHIN) by engineering an Xho1 restriction enzyme recognition site into vif. Prior to doing this, an Xho 1 site in nef was deleted. Test vectors (TVs) were constructed by incorporating amplified POL or RHIN into the IGVV by using ApaI and Xho1 or PinAI and Xho1 restriction sites respectively. TVs were prepared as libraries (pools) in order to capture and preserve the pol or RHN sequence heterogeneity of the virus in the patient. […]
Susceptibility tests were carried out with the TV libraries by using viral particles comprising the RTV libraries to infect a host cell in which the expression of the indicator gene is measured. The amount of indicator gene (luciferase) activity detected in infected cells is used as a direct measure of “infectivity,” i.e., the ability of the virus to complete a single round of replication. Thus, drug resistance or sensitivity can be determined by plotting the amount of luciferase activity produced by patient derived viruses in the presence of varying concentrations of the antiviral drug. By identifying the concentration of drug at which luciferase activity is half-maximum, the IC50 of the virus from which patient-derived segment(s) were obtained for the antiretroviral agent can be determined. […]

[2] = tested on: HIV isolated from treatment-naïve patients (RHIN segment); experiment: Anti-HIV drug susceptibility assay (luciferase test vectors, 293 cells), patient-derived RHIN segment
Description: (§1) Patient-derived segment(s) corresponding to either the entire pol gene, encoding HIV protease, reverse transcriptase, integrase, and RNAse H (hereinafter “POL”), or the portion of pol encoding amino acids 319-440 of reverse transcriptase, integrase, and RNAse H (hereinafter “RHIN”), were amplified by the reverse transcription-polymerase chain reaction method (RT-PCR) using viral RNA isolated from viral particles present in the plasma or serum of HIV-infected individuals as follows. Virus was pelleted by centrifugation at 20,400×g for 60 min from plasma (typically, 1 ml) prepared from blood samples collected in evacuated tubes containing either EDTA, acid-citrate dextrose, or heparin as an anticoagulant. Virus particles were disrupted by resuspending the pellets in 200 μl of lysis buffer (4 M guanidine thiocyanate, 0.1 M Tris HCl [pH 8.0], 0.5% sodium lauryl sarcosine, 1% dithiothreitol). RNA was extracted from viral lysates by using oligo(dT) linked to magnetic beads (Dynal, Oslo, Norway). Reverse transcription was performed with Superscript III (Invitrogen) at 50 degrees for 1 hour using primer 1.
From the resultant cDNA either POL or RHIN sequences were amplified using the Advantage High Fidelity PCR kit (BD Biosciences; Clontech). POL amplification products are made using forward Primer 3 containing an ApaI site and reverse Primer 4 containing a Xho 1 site. RHIN amplification products are made using forward Primer 2 containing a PINA1 site and reverse Primer 4 containing a Xho 1 site.
A retroviral vector designed to measure antiretroviral drug susceptibility was constructed by using an infectious molecular clone of HIV-1. The vector, referred to herein as an indicator gene viral vector (IGVV), is replication defective and contains a luciferase expression cassette inserted within a deleted region of the envelope (env) gene. The IGVV is described in U.S. Pat. No. 5,837,464 (International Publication Number WO 97/27319) which is hereby incorporated by reference in its entirety. […]

[3] = tested on: HIV isolated from treatment-naïve patients (POL segment); experiment: Anti-HIV drug susceptibility assay (luciferase test vectors, 293 cells), patient-derived POL segment; details: 30 clinical isolates from treatment-naïve patients, FIG. 5
Description: as §1
From the resultant cDNA either POL or RHIN sequences were amplified using the Advantage High Fidelity PCR kit (BD Biosciences; Clontech). POL amplification products are made using forward Primer 3 containing an ApaI site and reverse Primer 4 containing a Xho 1 site. […]

[4] = 30 clinical isolates from treatment-naïve patients, RHIN segment, FIG. 5

## O=C(NCc1ccc(F)cc1)c1nc(N2CCCCS2(=O)=O)c2cccnc2c1O [L-870,810]
[1]; site-directed integrase mutant N155S
  susceptibility (IC50 relative to HIV strain IIIB): reduced susceptibility
[1]; site-directed integrase mutant V72I/F121Y/T125K
  susceptibility (IC50 relative to HIV strain IIIB): reduced susceptibility
[1]; site-directed integrase mutant
  susceptibility (IC50 relative to HIV strain IIIB): reduced susceptibility
[2]; [4]
  mean fold change (FC) in IC50: 0.86
  median fold change (FC) in IC50: 0.82
[2]; RHIN sequences from 45 treatment-naïve patient viruses, FIG. 4
  mean fold change (FC) in IC50 relative to HIV strain IIIb: 0.83
[3]
  mean fold change (FC) in IC50: 0.85
  median fold change (FC) in IC50: 0.85
